Measured values published in PubChem BioAssay AID1845211 (Molecular Pharmacology Branch, DTP, NCI, 2023).

Tested on: NCI-H322M multicellular tumor spheroids, viability (% test/control)
Test: Anticancer human tumor NCI-H322M cell line growth inhibition;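 for viability, T/C: spheroids exposed to compound for seven days before readout; 100% = DMSO vehicle control wells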
Details: for IC50: curve of first compound; for viability, T/C: stronger effect = lower value
Outline: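 Complex tumor spheroids combined malignant cells with endothelial cells and mesenchymal stem cells. DNA-damaging drugs and DNA repair inhibitors were tested alone and in combination, at half-log dilutions down from clinical Cmax (top 10 microM if Cmax unknown), 0.25% DMSO final.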

[1] = second compound 1 µM, first compound 0.0949 µM
[2] = second compound 1 µM, first compound 0.3 µM
[3] = second compound 1 µM, first compound 0.949 µM
[4] = second compound 1 µM, first compound 3 µM
[5] = second compound 3.16 µM, first compound 0.0949 µM
[6] = second compound 3.16 µM, first compound 0.3 µM
[7] = second compound 3.16 µM, first compound 0.949 µM
[8] = second compound 3.16 µM, first compound 3 µM
[9] = second compound 10 µM, first compound 0.0949 µM
[10] = second compound 10 µM, first compound 0.3 µM
[11] = second compound 10 µM, first compound 0.949 µM
[12] = second compound 10 µM, first compound 3 µM
[13] = second compound 31.6 µM, first compound 0.0949 µM
[14] = second compound 31.6 µM, first compound 0.3 µM
[15] = second compound 31.6 µM, first compound 0.949 µM
[16] = second compound 31.6 µM, first compound 3 µM
[17] = second compound 100 µM, first compound 0.0949 µM
[18] = second compound 100 µM, first compound 0.3 µM
[19] = second compound 100 µM, first compound 0.949 µM
[20] = second compound 100 µM, first compound 3 µM

| Structure (SMILES) | IC50 (second compound 1 µM) [µM] | IC50 (second compound 3.16 µM) [µM] | IC50 (second compound 10 µM) [µM] | IC50 (second compound 31.6 µM) [µM] | IC50 (second compound 100 µM) [µM] | viability, T/C [1] [%] | viability, T/C [2] [%] | viability, T/C [3] [%] | viability, T/C [4] [%] | viability, T/C [5] [%] | viability, T/C [6] [%] | viability, T/C [7] [%] | viability, T/C [8] [%] | viability, T/C [9] [%] | viability, T/C [10] [%] | viability, T/C [11] [%] | viability, T/C [12] [%] | viability, T/C [13] [%] | viability, T/C [14] [%] | viability, T/C [15] [%] | further results |
| --- | --- | --- | --- | --- | --- | --- | --- | --- | --- | --- | --- | --- | --- | --- | --- | --- | --- | --- | --- | --- | --- |
| Cn1ncnc1[C@H]1c2n[nH]c(=O)c3cc(F)cc(c23)N[C@@H]1c1ccc(F)cc1 + Cn1nnc2c(C(N)=O)ncn2c1=O | > 3 | > 3 | > 3 | > 3 | > 3 | 87.8 | 81.2 | 88.8 | 70 | 84.3 | 74.3 | 81.5 | 67.8 | 73.8 | 76.2 | 77.1 | 59.3 | 78.8 | 76.5 | 70.9 | viability, T/C (second compound 1 µM, first compound 0.00949 µM): 89.4%; viability, T/C (second compound 1 µM, first compound 0.03 µM): 79.4%; viability, T/C (second compound 3.16 µM, first compound 0.00949 µM): 77.9%; viability, T/C (second compound 3.16 µM, first compound 0.03 µM): 113%; viability, T/C (second compound 10 µM, first compound 0.00949 µM): 83.1%; viability, T/C (second compound 10 µM, first compound 0.03 µM): 71%; viability, T/C (second compound 31.6 µM, first compound 0.00949 µM): 90.3%; viability, T/C (second compound 31.6 µM, first compound 0.03 µM): 74.1%; viability, T/C [16]: 69.3%; viability, T/C (second compound 100 µM, first compound 0.00949 µM): 92.2%; viability, T/C (second compound 100 µM, first compound 0.03 µM): 68.8%; viability, T/C [17]: 64.5%; viability, T/C [18]: 68.9%; viability, T/C [19]: 59.5%; viability, T/C [20]: 57.7% |
| O=C(c1cc(Cc2n[nH]c(=O)c3ccccc23)ccc1F)N1CCN(C(=O)C2CC2)CC1 + Cn1nnc2c(C(N)=O)ncn2c1=O | > 30 | > 30 | > 30 | > 30 | > 30 | 84.3 | 93.5 | 88.7 | 92.5 | 86.1 | 81.5 | 80.1 | 79.9 | 85.4 | 90.7 | 85.7 | 78.1 | 105 | 87.5 | 86.1 | viability, T/C (second compound 1 µM, first compound 9.49 µM): 78%; viability, T/C (second compound 1 µM, first compound 30 µM): 94%; viability, T/C (second compound 3.16 µM, first compound 9.49 µM): 88.2%; viability, T/C (second compound 3.16 µM, first compound 30 µM): 84.6%; viability, T/C (second compound 10 µM, first compound 9.49 µM): 80%; viability, T/C (second compound 10 µM, first compound 30 µM): 73.5%; viability, T/C [16]: 93.1%; viability, T/C (second compound 31.6 µM, first compound 9.49 µM): 84.5%; viability, T/C (second compound 31.6 µM, first compound 30 µM): 93.6%; viability, T/C [17]: 76.8%; viability, T/C [18]: 82.4%; viability, T/C [19]: 96.4%; viability, T/C [20]: 86.8%; viability, T/C (second compound 100 µM, first compound 9.49 µM): 75.2%; viability, T/C (second compound 100 µM, first compound 30 µM): 71.4% |
